We go through 24 compounds from patent US6740662B1, “Naphthyridine derivatives” (Yamanouchi Pharmaceutical Co., Ltd., priority 1999, dated 2004).

Counter-ions that a name gives are not always drawn.

A word on the melting point: it is the temperature, or range, at which the solid turns liquid.

The test system of data set [1] is P450 drug metabolizing enzyme present in the liver microsome. Put plainly: In vitro drug metabolism test using liver microsome. Type of data set: in vitro ADME. Conditions: human and rat liver microsome, test compound 20 ng/ml, 37° C., 10, 20 and 30 minutes, residual ratio. Here is the method: 1) Human and rat liver microsome suspension (human microsome: Xenotech, rat microsome: Charles River) was diluted with 100 mM Na-K phosphate buffer (pH 7.4) to a protein concentration of 0.5 mg/ml. To a 100 μl portion of this suspension were added 2 μl of a test compound solution (a 10 μg/ml acetonitrile solution), 500 μl of 200 mM Na-K phosphate buffer (pH 7.4), 50 μl of 1 mM EDTA-NaOH (pH 7.4) and 200 μl of purified water, thereby preparing a substrate solution (concentration in the reaction solution: liver microsome (as the protein content) 0.05 mg/ml, test compound 20 ng/ml, 100 mM Na-K phosphate buffer, 0.1 mM EDTA-NaOH).
2) An NADPH production system was prepared by mixing 42 mg of NADP, 5 ml of 100 mM […] (G6P) and 5 ml of 100 mM MgCl2, and adding 57 μl of G6P dehydrogenase (about 1750 U/5 mg/ml) to the mixture. This was heated at 37° C. for 5 minutes and then ice-cooled until its use.
3) A 900 μl portion of the substrate solution was pre-incubated at 37° C. for 5 minutes, and then 100 μl of the NADPH production system was added thereto, following by reaction at 37° C. for 10, 20 and 30 minutes. After termination of the reaction by adding 2 ml of ethyl acetate, the whole was ice-cooled. In this connection, a control sample was prepared by adding 100 μl of the NADPH production system after adding 2 ml of ethyl acetate (0 minute reaction).
4) To the reaction solution was added 100 μl of an internal standard substance having a predetermined concentration (an acetonitrile solution), 1 ml of 0.5 M phosphoric acid and 2 ml of ethyl acetate, followed by shaking for 10 minutes. After 10 minutes of centrifugation at 2,500 rpm, the ethyl acetate layer was separated and evaporated to dryness, and the residue was dissolved in 100 μl of an HPLC mobile phase solvent. The test compound was eluted after about 12 minutes, and the internal standard substance after about 16 minutes, under the following conditions. (HPLC measuring conditions mobile phase: acetonitrile/20 mM ammonium acetate=2:3 (v/v), column: Discovery RP Amide C16, 4.6×35 mm (SUPELCO), flow rate: 0.8 ml/min., detection: UV 286 nm)
5) A ratio (residual ratio) of the peak height ratio after 10, 20 or 30 minutes of the reaction to the peak height ratio of each test compound in the control (peak height ratio to the internal standard substance) was calculated.
Background: Liver microsomes are vesicles of endoplasmic reticulum, rich in cytochrome P450 enzymes.

Data set [2] is described as follows: Oral absorbability and pharmacokinetic profile evaluation test using type IV PDE inhibitory activity as the index. Conditions: orally administered to male Fisher rat at 3 mg/kg; plasma type IV PDE inhibitory activity as index; in comparison with a comparative compound. Type of data set: in vivo. Here is the method: Test Example 3. Oral absorbability and pharmacokinetic profile evaluation test using type IV PDE inhibitory activity as the index
The following assay was carried out in order to evaluate oral absorbability and pharmacokinetic profiles of the type IV PDE-inhibiting compounds of the invention.
1) Each test compound suspended in purified water containing 0.5% methyl cellulose was orally administered to a seven-week-old male Fisher rat at a dose of 3 mg/kg. In the control group, a solvent (0.5% methyl cellulose in purified water, 3 ml/kg) was administered in the same manner. After the oral administration, blood samples were periodically collected in the presence of heparin from the caudal vein of each rat under ether anesthesia, and plasma was prepared in the usual way.
2) The plasma prepared from each rat administered with the test compound or solvent was added to the type IV PDE measuring system shown in the above Test Example 1 so as to be a final concentration of 0.1%, and the type IV PDE inhibitory activity was measured.

Consider `CCn1c(=O)c(CCc2nnn[nH]2)c(C2CCCCC2)c2ccc(C)nc21` [Example 79], for which the melting point fell in the range of 207 to 209 °C. Further, the “metabolism by the P450 drug metabolizing enzyme present in the liver microsome” value (“metabolism” below) in data set [1] is “hardly metabolized”. Also, in data set [2], the “oral absorbability and metabolic stability” value is “good oral absorbability and metabolic stability”. `CCOC(=O)Nc1c(-c2cccc(Cl)c2)c2ccc(C)nc2n(CC)c1=O` [Example 9, ethyl N-[4-(3-chlorophenyl)-1-ethyl-7-methyl-2-oxo-1,2-dihydro-1,8-naphthyridin-3-yl]carbamate] had a melting point of 183 to 184 °C. In the case of `CCn1c(=O)c(CCC(=O)O)c(-c2cccc(Cl)c2)c2ccc(Cl)nc21` [Example 41, 3-[7-chloro-4-(3-chlorophenyl)-1-ethyl-2-oxo-1,2-dihydro-1,8-naphthyridin-3-yl]propanoic acid], the melting point was in the range of 197 to 199 °C. For the same compound, in data set [1], the “metabolism” value is given as “hardly metabolized”. Further, the “oral absorbability and metabolic stability” value in data set [2] is “good oral absorbability and metabolic stability”. On to `CCn1c(=O)c(CCC(=N)N)c(-c2cccc(Cl)c2)c2ccc(C)nc21` (as salt: hydrochloride) [Example 40, 3-(2-amidinoethyl)-4-(3-chlorophenyl)-1-ethyl-7-methyl-1,8-naphthyridin-2(1H)-one monohydrochloride], for which the melting point fell in the range of 228 to 230 °C. Compound `CCn1c(=O)c(C2CCNCC2)c(-c2cccc(Cl)c2)c2ccc(C)nc21` (as salt: fumarate) [Example 28, 4-(3-chlorophenyl)-1-ethyl-7-methyl-3-(piperidin-4-yl)-1,8-naphthyridin-2(1H)-one monofumarate] registered a melting point of 225 to 227 °C. Compound `CCn1c(=O)c(N)c(-c2cccc(Cl)c2)c2ccc(C)nc21` [Example 10, 3-amino-4-(3-chlorophenyl)-1-ethyl-7-methyl-1,8-naphthyridin-2(1H)-one] came in with a melting point of 167 to 171 °C. For `CCn1c(=O)c(CCC(=O)O)c(-c2cccc(C)c2)c2ccc(C)nc21` [Example 77, 3-[1-ethyl-7-methyl-4-(3-methylphenyl)-2-oxo-1,2-dihydro-1,8-naphthyridin-3-yl]propanoic acid], the melting point lay in the range of 174 to 175 °C. Further, the “metabolism” value in data set [1] is reported as “hardly metabolized”. Further, the “oral absorbability and metabolic stability” value in data set [2] is “good oral absorbability and metabolic stability”. `CCn1c(=O)c(C(N)=O)c(-c2cccc(Cl)c2)c2ccc(C)nc21` [Example 4, 4-(3-chlorophenyl)-1-ethyl-7-methyl-2-oxo-1,2-dihydro-1,8-naphthyridin-3-carboxamide] showed a melting point of 249 to 252 °C. In the case of `CCn1c(=O)c(CCCNS(C)(=O)=O)c(-c2cccc(Cl)c2)c2ccc(C)nc21` [Example 14, N-{3-[4-(3-chlorophenyl)-1-ethyl-7-methyl-2-oxo-1,2-dihydro-1,8-naphthyridin-3-yl]propyl}methanesulfonamide], the melting point is 140 to 141 °C. Regarding `CCn1c(=O)c(CCc2nnn[nH]2)c(-c2cccc(Br)c2)c2ccc(C)nc21` [Example 80], the melting point fell in the range of 194 to 196 °C. On to `CCn1c(=O)c(CCN2CCC(C(=O)O)CC2)c(-c2cccc(Cl)c2)c2ccc(C)nc21` [Example 38, 1-{2-[4-(3-chlorophenyl)-1-ethyl-7-methyl-2-oxo-1,2-dihydro-1,8-naphthyridin-3-yl]ethyl}piperidine-4-carboxylic acid], for which the melting point was in the range of 142 to 146 °C.

The compound `CCn1c(=O)c(CCCC(=O)O)c(-c2cccc(Cl)c2)c2ccc(C)nc21` (hydrate or solvate) [Example 61, 4-[4-(3-chlorophenyl)-1-ethyl-7-methyl-2-oxo-1,2-dihydro-1,8-naphthyridin-3-yl]butanoic acid] showed a melting point of 146 to 148 °C. In turn, `CCn1c(=O)c(CCC(=O)N(C)C)c(-c2cccc(Cl)c2)c2ccc(C)nc21` [Example 6, 3-[4-(3-chlorophenyl)-1-ethyl-7-methyl-2-oxo-1,2-dihydro-1,8-naphthyridin-3-yl]-N,N-dimethylpropanamide] showed a melting point of 134 to 136 °C. On the same count and under the same terms, to `CCn1c(=O)c(CCC(=O)O)c(-c2cccc(Cl)c2)c2ccc(CO)nc21` [Example 42, 3-[4-(3-chlorophenyl)-1-ethyl-7-hydroxymethyl-2-oxo-1,2-dihydro-1,8-naphthyridin-3-yl]propanoic acid] belongs 157 to 160 °C. For `CCOC(=O)c1c(-c2cccc(Cl)c2)c2ccc(C)nc2n(CC)c1=O` [Example 1, ethyl 4-(3-chlorophenyl)-1-ethyl-7-methyl-2-oxo-1,2-dihydro-1,8-naphthyridin-3-carboxylate], the melting point lay within 119 to 121 °C.

Take `CCn1c(=O)c(CCC(=O)O)c(-c2cccc(Br)c2)c2ccc(C)nc21` [Example 46, 3-[4-(3-bromophenyl)-1-ethyl-7-methyl-2-oxo-1,2-dihydro-1,8-naphthyridin-3-yl]propanoic acid]: the melting point lay within 161 to 162 °C. `CCn1c(=O)c(CCCO)c(-c2cccc(Cl)c2)c2ccc(C)nc21` [Example 16, 4-(3-chlorophenyl)-1-ethyl-3-(3-hydroxypropyl)-7-methyl-1,8-naphthyridin-2(1H)-one] registered a melting point of 109 to 110 °C. In turn, `CCn1c(=O)c(CCCOC)c(-c2cccc(Cl)c2)c2ccc(C)nc21` [Example 35, 4-(3-chlorophenyl)-1-ethyl-3-(3-methoxypropyl)-7-methyl-1,8-naphthyridin-2(1H)-one] gave a melting point of 96 to 97 °C. In the case of `CCn1c(=O)c(CCCc2nnn[nH]2)c(-c2cccc(Cl)c2)c2ccc(C)nc21` [Example 70, 4-(3-chlorophenyl)-1-ethyl-7-methyl-3-[3-(1H-tetrazol-5-yl)propyl]-1,8-naphthyridin-2(1H)-one], the melting point was 155 to 158 °C. Regarding `CCn1c(=O)c(CCCOC(=O)OC)c(-c2cccc(Cl)c2)c2ccc(C)nc21` [Example 34, 4-(3-chlorophenyl)-1-ethyl-3-[3-(methoxycarbonyloxy)propyl]-7-methyl-1,8-naphthyridin-2(1H)-one], the melting point is 92 to 93 °C. Consider `CCn1c(=O)c(CCC(=O)O)c(-c2cccc(Cl)c2)c2ccc(NC)nc21` [Example 44, 3-[4-(3-chlorophenyl)-1-ethyl-7-methylamino-2-oxo-1,2-dihydro-1,8-naphthyridin-3-yl]propanoic acid], for which the melting point was 202 to 204 °C. `CCn1c(=O)c(CCC(=O)O)c(-c2cccs2)c2ccc(C)nc21` [Example 78] yielded a melting point of 188 to 189 °C. `CCn1c(=O)c(CCC(=O)O)c(-c2cccc(Cl)c2)c2ccc(C)nc21` [Example 2, 3-[4-(3-chlorophenyl)-1-ethyl-7-methyl-2-oxo-1,2-dihydro-1,8-naphthyridin-3-yl]propanoic acid]: in data set [1], the “metabolism” value is recorded as “hardly metabolized”. Also, the “oral absorbability and metabolic stability” value in data set [2] is “good oral absorbability and metabolic stability”. `CCn1c(=O)c(C2CCNCC2)c(-c2cccc(Cl)c2)c2ccc(C)nc21` [Example 28, 4-(3-chlorophenyl)-1-ethyl-7-methyl-3-(piperidin-4-yl)-1,8-naphthyridin-2(1H)-one monofumarate]: the “metabolism” value in data set [1] is listed as “hardly metabolized”. For the same compound, the “oral absorbability and metabolic stability” value in data set [2] was “good oral absorbability and metabolic stability”.
